“Also recorded” adds a separate entry of the source.

Consider three compounds from patent US10821079B2, “PKC activators and combinations thereof” (Cognitive Research Enterprises, Inc., priority 2011, dated 2020).

The target in experiment [1] is T1, PKC-ε (Homo sapiens, UniProt Q02156).
T1 sequence (Q02156 1-737): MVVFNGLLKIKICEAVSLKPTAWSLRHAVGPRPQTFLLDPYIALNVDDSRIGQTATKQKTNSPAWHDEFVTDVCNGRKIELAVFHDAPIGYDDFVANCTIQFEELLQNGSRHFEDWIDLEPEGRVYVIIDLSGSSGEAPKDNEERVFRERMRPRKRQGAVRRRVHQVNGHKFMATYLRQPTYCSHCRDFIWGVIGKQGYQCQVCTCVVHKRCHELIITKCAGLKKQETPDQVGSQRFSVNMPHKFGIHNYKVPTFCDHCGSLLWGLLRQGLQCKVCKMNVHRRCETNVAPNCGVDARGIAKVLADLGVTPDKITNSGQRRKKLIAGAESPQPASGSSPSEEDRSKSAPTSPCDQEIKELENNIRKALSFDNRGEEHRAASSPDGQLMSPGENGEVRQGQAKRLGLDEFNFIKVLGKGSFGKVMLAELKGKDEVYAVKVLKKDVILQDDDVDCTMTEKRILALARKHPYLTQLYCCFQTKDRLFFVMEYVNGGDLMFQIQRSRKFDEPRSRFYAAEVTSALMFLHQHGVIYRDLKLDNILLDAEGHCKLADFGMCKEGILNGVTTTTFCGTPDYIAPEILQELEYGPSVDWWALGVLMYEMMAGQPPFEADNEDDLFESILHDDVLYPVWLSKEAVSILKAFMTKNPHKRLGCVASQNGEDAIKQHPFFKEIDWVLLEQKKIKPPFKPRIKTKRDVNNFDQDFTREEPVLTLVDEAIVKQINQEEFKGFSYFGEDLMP
Put plainly: Activation of purified PKC isozymes, radiometric: PKC-ε. The experiment is classed as biochemical. As for the experimental part:
(§1) To measure PKC, 10 μl of cell homogenate or purified PKC isoform was incubated for 15 min at 37° C. in the presence of 10 μM histones, 4.89 mM CaCl2, 1.2 μg/μl phosphatidyl-L-serine, 0.18 μg/μl 1,2-dioctanoyl-sn-glycerol, 10 mM MgCl2, 20 mM HEPES (pH 7.4), 0.8 mM EDTA, 4 mM EGTA, 4% glycerol, 8 μg/ml aprotinin, 8 μg/ml leupeptin, and 2 mM benzamidine. [γ32P]ATP (0.5 μCi) was added and 32P-phosphoprotein formation was measured by adsorption onto phosphocellulose as described previously. See Nelson et al., J. Neurochemistry, 1995, 65: 2350-2357.
(§2) PKC activity of each compound was measured in the absence of diacylglycerol and phosphatidylserine and PKC-δ and PKC-ε were measured in the absence of added EGTA and CaCl2, as described by Kanno et al., J. Lipid Res., 2006, 47: 1146-1156. Low concentrations of Ca^2+ were needed because high Ca^2+ can interact with the PKC phosphatidylserine binding site and prevents activation. […] To determine their PKC isoform specificity, the compounds were pre-incubated with purified isoforms of PKC for five minutes and the PKC activity was measured radiometrically.
The activation and PKC isozyme specificity of DCPLA-ethyl ester was measured following the procedures in Example 1(B) and (C), except that 9 ng of the purified isozyme was used and it was pre-incubated for 5 minutes at room temperature (FIG. 3). PKC-ε activation by DCPLA-tert-butyl ester and DCPLA-retinyl ester was measured in the same manner as DCPLA-ethyl ester (FIG. 3).
The EC50 values, PKC specificity, and activation for a select number of DCPLA esters was determined (see Table 1). EC50 values were determined by measuring the lowest concentration that activates by 50% of maximum activation. […] The specificity and activation of PKC by the various esters of DCPLA were calculated from the measurements of activation of PKC isozymes.

The next experiment deals with PKC-δ (Homo sapiens, UniProt Q05655). Put plainly: Activation of purified PKC isozymes, radiometric: PKC-δ. In kind it is biochemical. On the procedure:
To measure PKC activity, 10 μg of protein from either cytosol or membrane was incubated for 15 min at 37° C. in the presence of 10 μM histones, 4.89 mM CaCl2, 1.2 μg/μl phosphatidyl-L-serine, 0.18 μg/μl 1,2-dioctanoyl-sn-glycerol, 10 mM MgCl2, 20 mM HEPES (pH 7.4), 0.8 mM EDTA, 4 mM EGTA, 4% glycerol, 8 μg/ml aprotinin, 8 μg/ml leupeptin, 2 mM benzamidine, and 0.5 μCi of [γ-^32P]ATP. [^32P]Phosphoprotein formation was measured by adsorption onto phosphocellulose as described previously. See Nelson et al. (2009) J Biol Chem 284, 34514-34521. For measurements of activation by RA, PKC activity was measured in the absence of diacylglycerol (DAG) and phosphatidylserine, as described by Nelson et al. (2009) J Biol Chem 284, 34514-34521. PKC-δ and PKC-ε were measured in the absence of added EGTA and CaCl^2, as described by Kanno et al. (2006) J Lipid Res 47, 1146-1156. The enzyme was provided as a purified isozyme for in vitro experiments.
as §1, §2

The test system of experiment [2] is PKC-ε. Put plainly: PKC-ε translocation to membrane in SH-SY5Y cells (Western blot). The experiment is classed as cell-based, human. As for the experimental part:
Cells were harvested in homogenizing buffer containing 10 mM Tris-Cl (pH 7.4), 1 mM PMSF (phenylmethylsulfonyl fluoride), 1 mM EGTA, 1 mM EDTA, 50 mM NaF, and 20 μM leupeptin and were lysed by sonication. The homogenate was centrifuged at 100,000×g for 15 min at 4° C. to obtain the cytosolic fraction (supernatant) and membrane (pellet). The pellet was resuspended in the homogenizing buffer by sonication. Protein concentration was measured using the Coomassie Plus (Bradford) Protein Assay kit (Pierce, USA). Following quantification, 20 μg of protein from each sample was subjected to SDS-PAGE analysis in 4-20% gradient Tris-Glycine gel (Invitrogen, USA). The separated protein was then transferred to nitrocellulose membrane. The membrane was blocked with BSA at room temperature for 15 min and was incubated with primary antibody over night at 4° C. After the incubation, it was washed three times with TBS-T (Tris Buffered saline-Tween 20) and further incubated with alkaline phosphatase conjugated secondary antibody (Jackson Immunoresearch Laboratories, USA) at 1:10,000 dilution for 45 min. The membrane was finally washed three times with TBS-T and developed using the 1-step NBT-BCIP substrate (Pierce, USA). Western Blot was imaged in the ImageQuant RT-ECL (GE Life Sciences, Piscataway, N.J.) and densitometric quantification was performed using the IMAL software (Blanchette Rockefeller Neurosciences Institute, Morgantown, W. Va.). For translocation assays, PKC activation was represented as the percentage of total protein in the membrane (membrane/cytosol+membrane).
Equal amounts of proteins were loaded in each lane (20 μg) for both the cytosol and membrane fractions. Activation of PKC was calculated as the percentage of total PKC in the membrane (membrane/cytosol+membrane).

Sequence of PKC-δ (Q05655 whole entry): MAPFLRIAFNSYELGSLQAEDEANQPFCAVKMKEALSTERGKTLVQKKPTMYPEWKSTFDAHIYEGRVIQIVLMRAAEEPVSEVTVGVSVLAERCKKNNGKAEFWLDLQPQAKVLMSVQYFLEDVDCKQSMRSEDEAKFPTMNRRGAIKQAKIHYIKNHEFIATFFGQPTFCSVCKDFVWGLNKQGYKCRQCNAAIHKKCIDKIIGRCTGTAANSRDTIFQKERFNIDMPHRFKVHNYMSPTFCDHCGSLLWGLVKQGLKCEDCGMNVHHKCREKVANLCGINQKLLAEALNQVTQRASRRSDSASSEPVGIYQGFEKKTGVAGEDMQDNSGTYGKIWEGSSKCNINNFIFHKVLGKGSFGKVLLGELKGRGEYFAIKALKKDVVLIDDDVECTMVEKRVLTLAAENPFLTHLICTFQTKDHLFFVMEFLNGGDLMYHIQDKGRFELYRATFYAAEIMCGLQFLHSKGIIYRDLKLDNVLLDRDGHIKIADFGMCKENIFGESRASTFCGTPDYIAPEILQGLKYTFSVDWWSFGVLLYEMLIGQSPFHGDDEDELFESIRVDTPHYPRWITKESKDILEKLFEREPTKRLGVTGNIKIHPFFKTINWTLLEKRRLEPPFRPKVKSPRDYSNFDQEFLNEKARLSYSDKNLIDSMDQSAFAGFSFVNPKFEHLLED

For `CC1=C(/C=C/C(C)=C/C=C/C(C)=C/C(=O)O)C(C)(C)CCC1` [RA, All-trans retinoic acid], the “PKC-ε activation (in words)” value at PKC-ε [1] is on record as “not activated”. The “effect on PKC-δ (in words)” value on PKC-δ is given as “not activated”.
Turning to `CCCCCC1CC1CC1CC1CCCCCCCC(=O)OC` (centres unmarked) [DCPLA-ME, methyl 8-(2-((2-pentylcyclopropyl)methyl)cyclopropyl)octanoate], in the experiment on PKC-ε [2] (Aβ1-42 monomers 1 μM, DCPLA-ME added to ASPD-treated cells), the “PKC-ε translocation (in words)” value is “restored PKC-ε translocation to normal”. On PKC-ε [1], the “PKC-ε activation at peak” value is given as “up to 190 % of control” and the “concentration range activating PKC-ε by more than 50%” value lay in the range of 0.01 to 10 µM. In addition, at PKC-ε [1] (Activation of PKC-ε ÷ activation or inhibition of PKCα at 3 × EC50), the “Specificity ε/α” value came out at 12.1. In addition, the “effect on PKC-δ (in words)” value at PKC-δ is “did not have a major effect; also recorded: less inhibitory effect on PKC-δ than DHA-CP6 and DCPLA”.
As to `CCC/C=C/C=C/C(=O)O[C@H]1/C(=C/C(=O)OC)C[C@H]2C[C@H]([C@@H](C)O)OC(=O)C[C@H](O)C[C@@H]3C[C@H](OC(C)=O)C(C)(C)C(O)(C[C@@H]4C/C(=C/C(=O)OC)C[C@H](/C=C/C(C)(C)[C@]1(O)O2)O4)O3` [Bryostatin-1], the “PKC-ε translocation over time (in words)” value in the experiment on PKC-ε [2] (0.27 nM, 0-60 min) is given as “remained activated at 60 min”.
